Reference: ChEMBL document CHEMBL1201862, “PubChem BioAssay data set” (2004)
The source made the active and inactive calls.

How the values were obtained:
[1] = molecular target: Sphingosine 1-phosphate receptor 1 (Homo sapiens, UniProt P21453); assay: Fluorescence-based counterscreen assay for S1P4 agonists: Cell-based dose response high throughput screening assay to identify agonists of the Sphingosine 1-Phosphate Receptor 1 (S1P1). [Related pubchem assays (depositor defined):AID1509, AID1523, AID1801, AID463107, AID463118, AID463119, AID463122, AID463123, AID463129, AID463225, AID504400, AID504460]; type: functional
Aminopeptidase N = molecular target: T1, Aminopeptidase N (Plasmodium falciparum FcB1/Columbia, UniProt O96935); assay: malaria alanyl aminopeptidase activity blockers – biochemical, fluorogenic H-Leu-NHMec substrate, 1536-well (AID 1445); design: species or system Plasmodium falciparum 3D7, 3D7
T1 sequence (O96935 whole entry): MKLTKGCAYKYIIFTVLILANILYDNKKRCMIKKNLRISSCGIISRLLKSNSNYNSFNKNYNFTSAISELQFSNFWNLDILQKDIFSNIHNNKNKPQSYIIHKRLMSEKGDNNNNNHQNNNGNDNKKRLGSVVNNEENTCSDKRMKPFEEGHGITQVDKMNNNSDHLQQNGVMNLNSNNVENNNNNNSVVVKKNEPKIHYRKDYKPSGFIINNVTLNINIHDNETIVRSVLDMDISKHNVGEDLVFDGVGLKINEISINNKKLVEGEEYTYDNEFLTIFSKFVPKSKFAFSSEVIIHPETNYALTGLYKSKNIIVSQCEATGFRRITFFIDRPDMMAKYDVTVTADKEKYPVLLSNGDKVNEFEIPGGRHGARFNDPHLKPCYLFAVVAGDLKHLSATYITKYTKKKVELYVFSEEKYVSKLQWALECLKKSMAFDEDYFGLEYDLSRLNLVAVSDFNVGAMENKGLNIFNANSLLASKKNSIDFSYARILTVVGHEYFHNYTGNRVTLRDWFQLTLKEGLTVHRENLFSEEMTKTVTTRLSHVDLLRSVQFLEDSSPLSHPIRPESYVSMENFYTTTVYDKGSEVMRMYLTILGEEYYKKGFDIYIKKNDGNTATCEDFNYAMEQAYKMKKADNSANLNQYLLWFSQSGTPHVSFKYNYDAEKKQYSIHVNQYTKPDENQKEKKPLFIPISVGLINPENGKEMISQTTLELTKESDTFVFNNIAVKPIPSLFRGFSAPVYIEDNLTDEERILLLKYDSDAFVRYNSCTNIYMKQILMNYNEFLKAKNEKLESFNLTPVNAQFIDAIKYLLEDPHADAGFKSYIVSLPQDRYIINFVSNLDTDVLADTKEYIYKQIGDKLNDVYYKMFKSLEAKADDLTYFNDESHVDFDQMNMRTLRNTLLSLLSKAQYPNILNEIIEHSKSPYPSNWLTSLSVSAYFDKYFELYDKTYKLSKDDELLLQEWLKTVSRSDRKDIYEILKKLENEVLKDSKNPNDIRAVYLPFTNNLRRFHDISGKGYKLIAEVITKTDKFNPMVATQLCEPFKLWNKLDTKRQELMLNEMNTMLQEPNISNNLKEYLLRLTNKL

[2] = molecular target: Sphingosine 1-phosphate receptor 4 (Homo sapiens, UniProt O95977); assay: Fluorescence dose response cell-based high throughput screening assay for agonists of the Sphingosine 1-Phosphate Receptor 4 (S1P4). [Related pubchem assays: 1509 (Primary screen.), 1523 (Confirmation screen in triplicates.)]; type: functional
[3] = molecular target: Sphingosine 1-phosphate receptor 2 (Homo sapiens, UniProt O95136); assay: Dose Response Cell Based Assay for Agonists of the S1P2 Receptor. [Related pubchem assays: 729, 736, 843 ]; type: functional
Exodeoxyribonuclease V = Exodeoxyribonuclease V (Escherichia coli (strain K12), UniProt P04993+P07648+P08394); assay: RecBCD inhibition via phage-restricted bacterial growth – absorbance, V66 E. coli, mutant T4 phage, counter-screen for AddAB inhibitor project, dose response (AID 492957); type: functional, cell-based, Escherichia coli str. K-12 substr. MG1655
[4] = Counterscreen for AddAB inhibitors: absorbance-based bacterial cell-based high throughput dose response assay for inhibitors of bacterial viability. [Related pubchem assays (depositor defined):AID435030, AID449728, AID449731, AID488942, AID488955, AID488956]; type: functional
Large T antigen = Large T antigen (Simian virus 40, UniProt P03070); type: functional, Betapolyomavirus macacae;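 note: Confirmatory-stage PubChem screen for compounds that inhibit SV40 T antigen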
[5] = molecular target: T2, Intestinal-type alkaline phosphatase (Mus musculus, UniProt P24822); assay: PubChem AID 488874; type: functional
[6] = molecular target: T3, Intestinal-type alkaline phosphatase (Homo sapiens, UniProt P09923); assay: inhibition of human intestinal alkaline phosphatase – biochemical, luminescent, uHTS hits, set 2, dose response (AID 488793); type: functional
[7] = molecular target: T3, Intestinal-type alkaline phosphatase; assay: Dose Response confirmation of uHTS hits from a small molecule inhibitors of human intestinal alkaline phosphatase via a luminescent assay. [Related pubchem assays (depositor defined):AID2544, AID2574]; type: functional
[8] = molecular target: T3, Intestinal-type alkaline phosphatase; assay: activation of human intestinal alkaline phosphatase – biochemical, dose response (AID 488873); type: functional
[9] = molecular target: T2, Intestinal-type alkaline phosphatase; assay: PubChem AID 488785; type: functional
[10] = molecular target: T4, Alkaline phosphatase, tissue-nonspecific isozyme (Homo sapiens, UniProt P05186); assay: TNAP enzyme inhibition by screening hits, dose response, selectivity assay for mouse IAP inhibitor project, biochemical, human TNAP, uHTS hits (AID 488906); type: functional
T4 sequence (P05186 whole entry): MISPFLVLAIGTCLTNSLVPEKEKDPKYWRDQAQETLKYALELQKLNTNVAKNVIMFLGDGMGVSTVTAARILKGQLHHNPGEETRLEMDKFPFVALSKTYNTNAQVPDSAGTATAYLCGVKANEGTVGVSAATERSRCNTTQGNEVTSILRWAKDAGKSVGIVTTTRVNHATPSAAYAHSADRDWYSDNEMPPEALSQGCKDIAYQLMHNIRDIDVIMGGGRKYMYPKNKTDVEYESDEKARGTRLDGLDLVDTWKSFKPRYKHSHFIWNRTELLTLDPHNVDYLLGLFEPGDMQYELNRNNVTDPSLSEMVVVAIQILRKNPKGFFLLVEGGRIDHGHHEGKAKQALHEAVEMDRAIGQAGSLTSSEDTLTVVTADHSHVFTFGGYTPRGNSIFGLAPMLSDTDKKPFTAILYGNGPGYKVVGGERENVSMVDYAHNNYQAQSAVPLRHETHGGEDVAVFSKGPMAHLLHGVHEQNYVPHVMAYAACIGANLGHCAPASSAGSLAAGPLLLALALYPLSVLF

[11] = molecular target: T4, Alkaline phosphatase, tissue-nonspecific isozyme; assay: inhibition of tissue-nonspecific alkaline phosphatase – biochemical, dose response (AID 488882); type: functional
[12] = molecular target: 1-phosphatidylinositol 4,5-bisphosphate phosphodiesterase gamma-1 (Homo sapiens, UniProt P19174); assay: Counterscreen for inhibitors of phospholipase C isozymes (PLC-B3): Fluorescence-based biochemical high throughput dose response assay to identify inhibitors of phospholipase C isozymes (PLC-gamma1).
[13] = molecular target: 1-phosphatidylinositol 4,5-bisphosphate phosphodiesterase beta-3 (Homo sapiens, UniProt Q01970); assay: Fluorescence-based biochemical high throughput dose response assay to identify inhibitors of phospholipase C isozymes (PLC-B3).
Cytochrome P450 3A4 = Cytochrome P450 3A4 (Homo sapiens, UniProt P08684);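 note: CYP3A4 tested as one member of a cytochrome P450 panel screen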
[14] = decrease of insulin promoter-GFP reporter – imaging, high-content screening, mouse beta cells (AID 1628); type: functional; conditions: MIN6
[15] = MIN6 cell viability loss – mouse insulinoma, cytotoxicity control, dose response (AID 2122); type: functional;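 note: confirmatory high-throughput counterscreen run to flag cytotoxic compounds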
[16] = molecular target: T5, Ubiquitin-conjugating enzyme E2 N (Homo sapiens, UniProt P61088); type: functional;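 note: Dose-response confirmation in a TR-FRET assay detecting UBC13-driven polyubiquitin chain formation, inhibition measured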
T5 sequence (P61088 whole entry): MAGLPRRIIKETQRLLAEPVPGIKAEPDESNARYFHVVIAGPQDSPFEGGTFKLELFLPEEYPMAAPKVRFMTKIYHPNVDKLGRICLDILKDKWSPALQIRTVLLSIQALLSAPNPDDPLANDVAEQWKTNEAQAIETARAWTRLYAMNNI

[17] = molecular target: T6, Replicative DNA helicase DnaB (Mycobacterium tuberculosis, UniProt P9WMR3); assay: DnaB intein splicing inhibitors, dose response, biochemical, cell-free fluorescence (AID 449749); type: functional
T6 sequence (P9WMR3 whole entry): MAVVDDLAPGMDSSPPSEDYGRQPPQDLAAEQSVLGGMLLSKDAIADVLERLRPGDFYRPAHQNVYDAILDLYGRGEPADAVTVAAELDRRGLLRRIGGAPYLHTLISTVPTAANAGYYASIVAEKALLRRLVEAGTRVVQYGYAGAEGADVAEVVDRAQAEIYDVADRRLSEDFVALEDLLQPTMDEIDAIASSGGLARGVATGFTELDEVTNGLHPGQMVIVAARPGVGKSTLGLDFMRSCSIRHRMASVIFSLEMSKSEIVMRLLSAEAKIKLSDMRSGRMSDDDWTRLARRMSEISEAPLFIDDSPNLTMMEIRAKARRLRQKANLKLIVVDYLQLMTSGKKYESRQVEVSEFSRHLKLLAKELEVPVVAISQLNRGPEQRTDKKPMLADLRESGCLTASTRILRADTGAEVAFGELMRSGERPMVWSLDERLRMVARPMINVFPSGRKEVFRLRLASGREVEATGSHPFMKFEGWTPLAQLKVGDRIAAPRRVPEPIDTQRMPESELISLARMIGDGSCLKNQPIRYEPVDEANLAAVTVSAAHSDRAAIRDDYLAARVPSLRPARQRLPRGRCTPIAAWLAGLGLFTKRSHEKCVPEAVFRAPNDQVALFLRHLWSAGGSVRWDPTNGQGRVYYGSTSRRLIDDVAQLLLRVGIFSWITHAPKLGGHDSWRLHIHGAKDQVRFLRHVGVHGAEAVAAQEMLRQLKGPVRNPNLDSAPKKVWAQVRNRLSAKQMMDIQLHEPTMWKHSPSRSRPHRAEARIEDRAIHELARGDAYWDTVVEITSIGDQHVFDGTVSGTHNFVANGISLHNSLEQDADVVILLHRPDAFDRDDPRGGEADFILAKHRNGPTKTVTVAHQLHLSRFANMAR

Protein RecA = molecular target: T7, Protein RecA (Mycobacterium tuberculosis, UniProt P9WHJ3); assay: Fluorescence Cell-Free Homogeneous Dose Retest to Identify Inhibitors of RecA-Intein Splicing Activity. [Related pubchem assays (depositor defined):AID2097, AID2223, AID489010, AID492950]; type: functional
T7 sequence (P9WHJ3 whole entry): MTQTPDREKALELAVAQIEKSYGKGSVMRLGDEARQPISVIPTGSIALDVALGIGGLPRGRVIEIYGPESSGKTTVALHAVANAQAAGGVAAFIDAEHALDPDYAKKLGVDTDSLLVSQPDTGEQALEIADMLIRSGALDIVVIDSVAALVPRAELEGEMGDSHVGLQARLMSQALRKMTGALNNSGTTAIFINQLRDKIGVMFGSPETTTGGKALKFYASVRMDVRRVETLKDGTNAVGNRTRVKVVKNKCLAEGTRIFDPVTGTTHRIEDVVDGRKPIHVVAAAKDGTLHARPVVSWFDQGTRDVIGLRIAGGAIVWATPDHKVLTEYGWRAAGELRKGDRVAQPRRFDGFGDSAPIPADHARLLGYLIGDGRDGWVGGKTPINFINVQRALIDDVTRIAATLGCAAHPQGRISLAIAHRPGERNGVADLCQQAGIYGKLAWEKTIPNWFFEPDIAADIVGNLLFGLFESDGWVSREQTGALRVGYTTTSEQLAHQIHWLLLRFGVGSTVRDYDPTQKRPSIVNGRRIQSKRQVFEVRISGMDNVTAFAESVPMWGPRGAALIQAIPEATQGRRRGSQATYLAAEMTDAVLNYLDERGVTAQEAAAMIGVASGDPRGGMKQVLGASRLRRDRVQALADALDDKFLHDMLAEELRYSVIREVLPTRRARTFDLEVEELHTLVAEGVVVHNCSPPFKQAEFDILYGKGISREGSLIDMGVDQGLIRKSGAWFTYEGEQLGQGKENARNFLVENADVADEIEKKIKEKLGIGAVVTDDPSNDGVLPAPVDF

[18] = molecular target: Voltage-dependent T-type calcium channel subunit alpha-1H (Homo sapiens, UniProt O95180); assay: inhibition of CACNA1H calcium flux – cell-based, SynthLib3 library, HEK293 Cav3.2, fluorescence (AID 493041); type: functional
[19] = molecular target: Kappa-type opioid receptor (Homo sapiens, UniProt P41145); assay: SAR analysis of small molecule agonists of the kappa opioid receptor via a luminescent beta-arrestin assay - Set 3. [Related pubchem assays (depositor defined):AID1777, AID1785, AID1786, AID1966, AID2133, AID2136, AID2284, AID2500]; type: functional

T3 sequence (P09923 whole entry): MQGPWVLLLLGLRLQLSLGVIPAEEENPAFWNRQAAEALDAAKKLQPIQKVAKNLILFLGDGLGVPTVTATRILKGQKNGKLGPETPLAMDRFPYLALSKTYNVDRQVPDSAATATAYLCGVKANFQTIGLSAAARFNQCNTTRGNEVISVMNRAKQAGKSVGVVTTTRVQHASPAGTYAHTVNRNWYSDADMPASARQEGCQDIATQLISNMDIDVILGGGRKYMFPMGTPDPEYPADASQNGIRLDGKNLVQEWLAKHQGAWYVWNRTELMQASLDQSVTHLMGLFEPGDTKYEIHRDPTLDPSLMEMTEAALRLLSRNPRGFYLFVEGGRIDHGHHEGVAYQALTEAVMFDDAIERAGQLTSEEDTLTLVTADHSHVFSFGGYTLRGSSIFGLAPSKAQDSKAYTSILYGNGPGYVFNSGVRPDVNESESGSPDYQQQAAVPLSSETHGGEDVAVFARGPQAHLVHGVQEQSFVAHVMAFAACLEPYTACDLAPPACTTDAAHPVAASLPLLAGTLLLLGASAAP
T2 sequence (P24822 whole entry): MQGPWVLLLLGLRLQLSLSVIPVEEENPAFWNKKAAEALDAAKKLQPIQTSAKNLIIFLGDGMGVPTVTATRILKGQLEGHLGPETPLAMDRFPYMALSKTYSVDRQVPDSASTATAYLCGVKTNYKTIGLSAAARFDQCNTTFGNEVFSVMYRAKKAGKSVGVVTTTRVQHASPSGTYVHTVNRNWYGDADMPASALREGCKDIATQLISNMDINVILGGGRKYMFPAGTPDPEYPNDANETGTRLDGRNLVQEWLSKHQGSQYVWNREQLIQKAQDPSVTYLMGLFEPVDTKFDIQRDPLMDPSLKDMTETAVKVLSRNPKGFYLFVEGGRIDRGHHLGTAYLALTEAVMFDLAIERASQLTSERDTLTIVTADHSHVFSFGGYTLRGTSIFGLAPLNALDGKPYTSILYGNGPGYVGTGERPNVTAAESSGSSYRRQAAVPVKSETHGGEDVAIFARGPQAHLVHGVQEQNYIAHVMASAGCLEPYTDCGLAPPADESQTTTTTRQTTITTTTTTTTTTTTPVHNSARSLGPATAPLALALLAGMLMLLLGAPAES
Sequence of Sphingosine 1-phosphate receptor 2 (O95136 whole entry): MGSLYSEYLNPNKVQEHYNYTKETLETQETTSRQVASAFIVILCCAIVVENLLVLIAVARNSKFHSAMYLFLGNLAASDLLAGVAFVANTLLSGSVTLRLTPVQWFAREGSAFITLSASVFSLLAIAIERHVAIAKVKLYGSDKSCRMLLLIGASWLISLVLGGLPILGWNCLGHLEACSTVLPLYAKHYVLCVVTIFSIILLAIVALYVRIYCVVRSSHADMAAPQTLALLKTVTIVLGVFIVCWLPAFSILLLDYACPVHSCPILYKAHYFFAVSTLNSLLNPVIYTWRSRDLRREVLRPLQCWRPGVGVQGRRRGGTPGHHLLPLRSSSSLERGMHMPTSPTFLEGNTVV
Sequence of 1-phosphatidylinositol 4,5-bisphosphate phosphodiesterase beta-3 (Q01970 whole entry): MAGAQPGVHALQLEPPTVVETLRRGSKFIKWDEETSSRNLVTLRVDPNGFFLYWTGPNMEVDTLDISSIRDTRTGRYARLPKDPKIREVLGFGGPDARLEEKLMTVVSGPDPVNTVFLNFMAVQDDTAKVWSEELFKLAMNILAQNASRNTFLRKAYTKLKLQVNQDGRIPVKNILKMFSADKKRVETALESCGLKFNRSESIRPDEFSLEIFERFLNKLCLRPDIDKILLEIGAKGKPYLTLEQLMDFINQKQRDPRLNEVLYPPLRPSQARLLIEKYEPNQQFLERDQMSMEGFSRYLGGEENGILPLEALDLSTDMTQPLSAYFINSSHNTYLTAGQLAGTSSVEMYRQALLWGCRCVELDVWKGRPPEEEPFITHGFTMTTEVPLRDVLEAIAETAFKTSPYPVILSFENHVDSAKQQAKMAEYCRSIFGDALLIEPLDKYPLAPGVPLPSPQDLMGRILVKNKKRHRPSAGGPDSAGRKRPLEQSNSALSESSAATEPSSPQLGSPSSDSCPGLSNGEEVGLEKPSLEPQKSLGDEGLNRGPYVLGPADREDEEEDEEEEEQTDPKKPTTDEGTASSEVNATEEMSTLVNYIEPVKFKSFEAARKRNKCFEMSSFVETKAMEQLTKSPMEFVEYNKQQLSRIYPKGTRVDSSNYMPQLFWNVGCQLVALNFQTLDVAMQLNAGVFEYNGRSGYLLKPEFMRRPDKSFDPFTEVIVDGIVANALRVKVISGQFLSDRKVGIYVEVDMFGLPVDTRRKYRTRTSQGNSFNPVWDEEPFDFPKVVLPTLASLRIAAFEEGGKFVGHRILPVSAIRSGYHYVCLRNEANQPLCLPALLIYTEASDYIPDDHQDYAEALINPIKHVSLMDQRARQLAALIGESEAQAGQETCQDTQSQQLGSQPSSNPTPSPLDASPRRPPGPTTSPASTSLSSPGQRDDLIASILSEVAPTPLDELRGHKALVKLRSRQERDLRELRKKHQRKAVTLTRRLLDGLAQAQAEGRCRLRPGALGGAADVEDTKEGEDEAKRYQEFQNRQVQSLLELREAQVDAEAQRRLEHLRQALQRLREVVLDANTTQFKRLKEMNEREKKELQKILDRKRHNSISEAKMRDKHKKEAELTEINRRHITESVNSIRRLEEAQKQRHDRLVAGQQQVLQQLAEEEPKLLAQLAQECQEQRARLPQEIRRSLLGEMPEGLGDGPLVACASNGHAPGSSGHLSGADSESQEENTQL
Sequence of Large T antigen (P03070 whole entry): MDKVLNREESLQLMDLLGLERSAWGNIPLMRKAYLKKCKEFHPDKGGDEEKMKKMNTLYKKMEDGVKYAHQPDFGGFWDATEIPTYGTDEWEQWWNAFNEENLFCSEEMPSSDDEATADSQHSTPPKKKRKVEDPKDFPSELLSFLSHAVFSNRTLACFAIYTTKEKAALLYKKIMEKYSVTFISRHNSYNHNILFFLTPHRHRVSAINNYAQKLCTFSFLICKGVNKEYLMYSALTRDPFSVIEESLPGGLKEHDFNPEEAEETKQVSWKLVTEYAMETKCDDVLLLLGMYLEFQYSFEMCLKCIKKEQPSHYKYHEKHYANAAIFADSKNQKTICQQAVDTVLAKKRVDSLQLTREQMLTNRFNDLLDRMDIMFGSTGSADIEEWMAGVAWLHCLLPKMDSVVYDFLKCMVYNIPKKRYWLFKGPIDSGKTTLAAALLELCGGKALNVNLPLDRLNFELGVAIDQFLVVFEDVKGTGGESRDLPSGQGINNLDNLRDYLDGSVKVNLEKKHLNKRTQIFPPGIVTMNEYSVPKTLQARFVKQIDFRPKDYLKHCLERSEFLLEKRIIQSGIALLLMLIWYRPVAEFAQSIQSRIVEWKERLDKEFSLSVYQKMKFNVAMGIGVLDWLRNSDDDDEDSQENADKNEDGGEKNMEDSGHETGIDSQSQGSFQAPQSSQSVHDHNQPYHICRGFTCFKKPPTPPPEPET
Sequence of Sphingosine 1-phosphate receptor 1 (P21453 whole entry): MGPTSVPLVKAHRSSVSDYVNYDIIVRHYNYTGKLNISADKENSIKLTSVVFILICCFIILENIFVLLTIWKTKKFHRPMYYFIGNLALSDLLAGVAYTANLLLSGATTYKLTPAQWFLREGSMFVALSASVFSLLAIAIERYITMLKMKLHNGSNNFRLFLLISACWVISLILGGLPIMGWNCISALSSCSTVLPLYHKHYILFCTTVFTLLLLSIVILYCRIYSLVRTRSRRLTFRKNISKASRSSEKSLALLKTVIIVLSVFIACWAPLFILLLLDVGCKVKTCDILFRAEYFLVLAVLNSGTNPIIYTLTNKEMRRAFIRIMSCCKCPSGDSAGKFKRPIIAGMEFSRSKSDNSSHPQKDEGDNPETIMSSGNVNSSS
Sequence of 1-phosphatidylinositol 4,5-bisphosphate phosphodiesterase gamma-1 (P19174 whole entry): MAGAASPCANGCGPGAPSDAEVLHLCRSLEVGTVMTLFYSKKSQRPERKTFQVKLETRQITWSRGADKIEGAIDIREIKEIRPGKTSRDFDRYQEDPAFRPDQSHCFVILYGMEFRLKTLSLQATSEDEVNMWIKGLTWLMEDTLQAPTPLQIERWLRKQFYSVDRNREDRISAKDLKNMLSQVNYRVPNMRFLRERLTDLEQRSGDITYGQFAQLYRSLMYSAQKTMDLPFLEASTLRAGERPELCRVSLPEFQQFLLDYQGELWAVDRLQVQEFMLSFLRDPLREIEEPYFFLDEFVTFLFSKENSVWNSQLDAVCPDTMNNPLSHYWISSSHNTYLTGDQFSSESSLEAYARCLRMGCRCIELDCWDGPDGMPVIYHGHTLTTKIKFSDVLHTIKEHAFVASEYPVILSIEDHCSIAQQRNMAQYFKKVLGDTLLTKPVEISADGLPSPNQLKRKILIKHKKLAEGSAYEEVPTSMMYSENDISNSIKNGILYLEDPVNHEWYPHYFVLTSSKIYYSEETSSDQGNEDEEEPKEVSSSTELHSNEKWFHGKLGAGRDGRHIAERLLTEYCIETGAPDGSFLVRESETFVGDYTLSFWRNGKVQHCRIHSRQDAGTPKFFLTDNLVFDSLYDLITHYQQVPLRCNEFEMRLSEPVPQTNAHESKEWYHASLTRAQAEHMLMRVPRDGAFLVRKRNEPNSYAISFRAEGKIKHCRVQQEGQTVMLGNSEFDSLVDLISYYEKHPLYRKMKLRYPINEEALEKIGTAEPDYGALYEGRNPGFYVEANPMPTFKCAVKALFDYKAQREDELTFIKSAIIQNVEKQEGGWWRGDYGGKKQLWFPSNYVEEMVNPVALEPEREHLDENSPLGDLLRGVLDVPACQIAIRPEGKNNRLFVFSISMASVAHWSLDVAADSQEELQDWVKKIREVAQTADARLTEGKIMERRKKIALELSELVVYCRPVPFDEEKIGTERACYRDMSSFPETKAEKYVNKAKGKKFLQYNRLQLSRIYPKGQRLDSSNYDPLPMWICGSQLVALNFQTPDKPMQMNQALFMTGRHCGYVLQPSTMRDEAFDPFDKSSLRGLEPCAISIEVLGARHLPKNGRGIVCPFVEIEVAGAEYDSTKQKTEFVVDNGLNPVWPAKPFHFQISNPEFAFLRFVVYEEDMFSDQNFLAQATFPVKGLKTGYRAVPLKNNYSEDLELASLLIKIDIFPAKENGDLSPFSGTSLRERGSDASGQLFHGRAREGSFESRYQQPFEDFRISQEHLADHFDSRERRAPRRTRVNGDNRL

CC(C)n1c(=N)c(C(=O)NCCc2ccccc2)cc2c(=O)n3ccccc3nc21
EC50 [1]: 15.9 µM (inactive) | IC50 (Aminopeptidase N): 58.6 µM (active) | EC50 [2]: 5.78 µM (active) | EC50 [3]: 4.8 µM (active)

CCOc1ccc2oc(C(=O)NNC(=O)c3ccccc3O)c(C)c2c1
IC50 (Exodeoxyribonuclease V): > 119 µM (inactive) | IC50 [4]: > 119 µM (inactive)

COc1cc(/C=C(\C#N)C(=O)c2ccc(O)c(O)c2)cc(I)c1O
IC50 (Large T antigen): 7.17 µM (active) | IC50 [5]: < 0.195 µM (active) | IC50 [6]: 4.56 µM (active) | IC50 [7]: 7.31 µM (active) | EC50 [8]: > 100 µM (inactive) | IC50 [9]: 5.7 µM (active) | IC50 [10]: > 100 µM (inactive) | IC50 [11]: 5.88 µM (active) | IC50 [12]: > 122 µM (inactive) | IC50 [13]: > 122 µM (inactive) | AC50 (Cytochrome P450 3A4): 12.6 µM (inconclusive)

Fc1ccc(Nc2nc(NCc3ccco3)c3ccccc3n2)cc1
IC50 [14]: 1.7 µM (active) | IC50 [15]: 1.93 µM (active) | IC50 [16]: > 20 µM (inactive) | AC50 [17]: 1.93 µM (active) | EC50 (Protein RecA): 8.32 µM (active)

CCC(CC)CN1C[C@@H]2C(CNC(=O)c3cc(Cl)cc(Cl)c3)[C@@H]2C1 (some centres undefined)
EC50 [18]: 1.2 µM (active)

CCCCN(Cc1cc2cc(Cl)ccc2[nH]c1=O)C(=O)c1ccccc1
EC50 [19]: > 20 µM (inactive)
